Legend:
Assay in all cases: biochemical
Parameters in all cases: species or system HEK293/K-562/placenta mixed human extract; Kinobeads chemoproteomic competition binding, quantified by TMT LC-MS/MS, dose response up to 20 uM
AURKA = AURKA (Homo sapiens, UniProt O14965)
CAMKK1 = CAMKK1 (Homo sapiens, UniProt Q8N5S9)
LIMK1 = LIMK1 (Homo sapiens, UniProt P53667)
SGK3 = SGK3 (Homo sapiens, UniProt Q96BR1)
SNRK = SNRK (Homo sapiens, UniProt Q9NRH2)
STK38L = STK38L (Homo sapiens, UniProt Q9Y2H1)

Measured: IC50

SNRK, sequence (Q9NRH2 whole entry): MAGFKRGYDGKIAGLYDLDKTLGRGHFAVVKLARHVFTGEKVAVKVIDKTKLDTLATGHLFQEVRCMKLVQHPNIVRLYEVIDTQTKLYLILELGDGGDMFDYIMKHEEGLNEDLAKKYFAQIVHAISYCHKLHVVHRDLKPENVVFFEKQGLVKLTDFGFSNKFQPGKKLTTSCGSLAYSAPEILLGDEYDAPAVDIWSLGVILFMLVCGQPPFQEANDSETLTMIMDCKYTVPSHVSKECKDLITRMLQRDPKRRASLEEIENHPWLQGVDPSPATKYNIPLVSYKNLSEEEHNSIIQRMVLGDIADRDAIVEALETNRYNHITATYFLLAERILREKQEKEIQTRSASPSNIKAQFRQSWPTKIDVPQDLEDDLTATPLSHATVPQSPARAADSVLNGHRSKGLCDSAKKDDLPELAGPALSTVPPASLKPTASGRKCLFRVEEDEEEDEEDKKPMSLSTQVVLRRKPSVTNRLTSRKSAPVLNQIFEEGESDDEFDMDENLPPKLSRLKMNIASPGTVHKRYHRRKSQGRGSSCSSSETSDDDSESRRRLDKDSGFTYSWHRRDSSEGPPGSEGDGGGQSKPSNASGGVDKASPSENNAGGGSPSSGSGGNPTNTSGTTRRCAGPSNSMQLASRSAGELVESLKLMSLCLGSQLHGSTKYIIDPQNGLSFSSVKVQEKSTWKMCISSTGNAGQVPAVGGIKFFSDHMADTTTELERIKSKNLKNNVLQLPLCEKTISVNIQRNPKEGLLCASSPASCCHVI
SGK3, sequence (Q96BR1 whole entry): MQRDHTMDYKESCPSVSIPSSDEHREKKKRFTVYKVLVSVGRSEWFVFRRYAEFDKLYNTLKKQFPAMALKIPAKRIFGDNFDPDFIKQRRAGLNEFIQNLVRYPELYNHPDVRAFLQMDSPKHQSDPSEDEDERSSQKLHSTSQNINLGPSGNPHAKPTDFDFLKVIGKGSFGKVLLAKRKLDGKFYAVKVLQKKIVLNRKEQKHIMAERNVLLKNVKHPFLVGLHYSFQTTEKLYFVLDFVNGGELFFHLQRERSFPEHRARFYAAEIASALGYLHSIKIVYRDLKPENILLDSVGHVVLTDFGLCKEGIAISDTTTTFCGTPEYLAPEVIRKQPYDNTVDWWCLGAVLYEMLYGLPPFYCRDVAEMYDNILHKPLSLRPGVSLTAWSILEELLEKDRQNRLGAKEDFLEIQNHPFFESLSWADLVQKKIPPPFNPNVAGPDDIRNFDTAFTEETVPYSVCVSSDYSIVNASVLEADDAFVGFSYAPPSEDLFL
CAMKK1, sequence (Q8N5S9 whole entry): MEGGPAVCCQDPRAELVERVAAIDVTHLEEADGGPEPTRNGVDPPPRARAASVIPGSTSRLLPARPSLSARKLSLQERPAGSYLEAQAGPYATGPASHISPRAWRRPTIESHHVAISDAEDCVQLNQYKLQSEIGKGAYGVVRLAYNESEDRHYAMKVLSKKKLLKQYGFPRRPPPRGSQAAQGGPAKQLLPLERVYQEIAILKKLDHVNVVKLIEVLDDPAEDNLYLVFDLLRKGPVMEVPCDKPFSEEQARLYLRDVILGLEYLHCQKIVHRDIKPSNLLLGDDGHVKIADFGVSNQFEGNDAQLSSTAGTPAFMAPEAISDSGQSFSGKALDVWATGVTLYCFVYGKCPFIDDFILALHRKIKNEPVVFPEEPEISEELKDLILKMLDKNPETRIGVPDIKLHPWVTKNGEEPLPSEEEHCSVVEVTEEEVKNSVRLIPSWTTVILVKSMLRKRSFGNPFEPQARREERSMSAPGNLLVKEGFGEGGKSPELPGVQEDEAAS
LIMK1, sequence (P53667 whole entry): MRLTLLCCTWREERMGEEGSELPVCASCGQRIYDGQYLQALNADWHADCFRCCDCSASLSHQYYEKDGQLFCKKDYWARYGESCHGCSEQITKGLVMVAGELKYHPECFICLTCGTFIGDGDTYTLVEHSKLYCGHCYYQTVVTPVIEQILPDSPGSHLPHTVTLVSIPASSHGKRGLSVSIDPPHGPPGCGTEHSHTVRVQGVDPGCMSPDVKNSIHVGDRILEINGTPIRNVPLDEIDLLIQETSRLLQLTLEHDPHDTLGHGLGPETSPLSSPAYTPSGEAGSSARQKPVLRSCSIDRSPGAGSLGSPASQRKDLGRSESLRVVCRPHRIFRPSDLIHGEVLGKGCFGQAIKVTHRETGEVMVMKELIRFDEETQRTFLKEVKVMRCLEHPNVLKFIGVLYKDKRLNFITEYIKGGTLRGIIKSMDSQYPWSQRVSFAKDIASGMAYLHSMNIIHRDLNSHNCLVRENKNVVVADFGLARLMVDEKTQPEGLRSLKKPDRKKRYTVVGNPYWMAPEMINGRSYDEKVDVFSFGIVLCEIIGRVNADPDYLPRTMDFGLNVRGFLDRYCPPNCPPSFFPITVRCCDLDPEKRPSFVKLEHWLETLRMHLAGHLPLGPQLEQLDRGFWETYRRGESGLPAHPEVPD
STK38L, sequence (Q9Y2H1 whole entry): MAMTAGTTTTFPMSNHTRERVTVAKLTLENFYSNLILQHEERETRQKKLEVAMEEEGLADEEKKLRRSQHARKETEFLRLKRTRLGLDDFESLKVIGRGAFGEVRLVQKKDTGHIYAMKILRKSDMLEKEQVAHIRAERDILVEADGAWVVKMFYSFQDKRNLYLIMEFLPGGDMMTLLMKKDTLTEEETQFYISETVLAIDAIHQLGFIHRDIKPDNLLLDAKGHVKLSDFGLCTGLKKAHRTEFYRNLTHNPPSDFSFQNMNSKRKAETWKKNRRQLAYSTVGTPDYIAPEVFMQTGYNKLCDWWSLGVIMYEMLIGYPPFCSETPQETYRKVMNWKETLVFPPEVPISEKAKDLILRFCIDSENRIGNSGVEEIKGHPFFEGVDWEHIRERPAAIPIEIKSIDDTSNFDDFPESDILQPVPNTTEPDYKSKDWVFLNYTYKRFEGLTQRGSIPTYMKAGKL
AURKA, sequence (O14965 whole entry): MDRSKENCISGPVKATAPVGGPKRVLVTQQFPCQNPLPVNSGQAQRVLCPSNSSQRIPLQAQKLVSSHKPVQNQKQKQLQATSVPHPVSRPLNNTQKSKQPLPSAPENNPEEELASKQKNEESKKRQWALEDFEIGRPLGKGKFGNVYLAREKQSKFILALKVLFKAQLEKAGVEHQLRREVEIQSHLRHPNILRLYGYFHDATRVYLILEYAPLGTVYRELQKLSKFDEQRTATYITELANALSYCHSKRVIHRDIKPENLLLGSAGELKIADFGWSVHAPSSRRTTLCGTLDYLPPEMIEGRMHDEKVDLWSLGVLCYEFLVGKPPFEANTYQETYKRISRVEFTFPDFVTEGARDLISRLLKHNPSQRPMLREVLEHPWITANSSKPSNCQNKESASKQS

COc1ccccc1-c1n[nH]c2nc(N[C@H]3CC[C@H](NS(=O)(=O)CCC(F)(F)F)CC3)nc(OC)c12 [compound 31, 3,3,3-Trifluoro-N-(trans-4-((4-methoxy-3-(2-methoxyphenyl)-1H-pyrazolo[3,4-d]pyrimidin-6-yl)amino)cyclohexyl)propane-1-sulfonamide]
≥ 20 µM: all assays above

Source: PMC6407917, “Identification of GSK3186899/DDD853651 as a Preclinical Development Candidate for the Treatment of Visceral Leishmaniasis” (Journal of Medicinal Chemistry, 2018)
